Measurements as given in ChEMBL document CHEMBL4507329, “Data for DCP probe BTZO-1” (2021).

Tests used:
[1] = target: Tyrosine-protein kinase receptor UFO (Homo sapiens) (UniProt P30530); conditions: Compound concentration 1000.0 nM
[2] = target: Bone morphogenetic protein receptor type-1A (Homo sapiens) (UniProt P36894); conditions: Compound concentration 1000.0 nM
[3] = target: Bone morphogenetic protein receptor type-1B (Homo sapiens) (UniProt O00238); conditions: Compound concentration 1000.0 nM
[4] = target: Bone morphogenetic protein receptor type-2 (Homo sapiens) (UniProt Q13873); conditions: Compound concentration 1000.0 nM
[5] = target: Serine/threonine-protein kinase B-raf (Homo sapiens) (UniProt P15056); conditions: Compound concentration 1000.0 nM
[6] = target: Calcium/calmodulin-dependent protein kinase kinase 2 (Homo sapiens) (UniProt Q96RR4); conditions: Compound concentration 1000.0 nM
[7] = target: Cyclin-dependent kinase 2 (Homo sapiens) (UniProt P24941); conditions: Compound concentration 1000.0 nM
[8] = target: Cyclin-dependent kinase 4 (Homo sapiens) (UniProt P11802); conditions: Compound concentration 1000.0 nM
[9] = target: Serine/threonine-protein kinase Chk2 (Homo sapiens) (UniProt O96017); conditions: Compound concentration 1000.0 nM
[10] = target: Casein kinase II subunit alpha' (Homo sapiens) (UniProt P19784); conditions: Compound concentration 1000.0 nM
[11] = system: Epidermal growth factor receptor (Homo sapiens), P00533 [UNDEFINED MUTATION]; conditions: Compound concentration 1000.0 nM
[12] = system: Epidermal growth factor receptor (Homo sapiens), P00533 [UNDEFINED MUTATION]; conditions: Compound concentration 1000.0 nM; remark: listed apart in the source
[13] = target: Eukaryotic translation initiation factor 2-alpha kinase 1 (Homo sapiens) (UniProt Q9BQI3); conditions: Compound concentration 1000.0 nM
[14] = target: Ephrin type-A receptor 3 (Homo sapiens) (UniProt P29320); conditions: Compound concentration 1000.0 nM
[15] = target: Mitogen-activated protein kinase 1 (Homo sapiens) (UniProt P28482); conditions: Compound concentration 1000.0 nM
[16] = target: Mitogen-activated protein kinase 7 (Homo sapiens) (UniProt Q13164); conditions: Compound concentration 1000.0 nM
[17] = target: Fibroblast growth factor receptor 3 (Homo sapiens) (UniProt P22607); conditions: Compound concentration 1000.0 nM
[18] = target: Receptor-type tyrosine-protein kinase FLT3 (Homo sapiens) (UniProt P36888); conditions: Compound concentration 1000.0 nM
[19] = system: Mast/stem cell growth factor receptor Kit (Homo sapiens), P10721 [A829P]; conditions: Compound concentration 1000.0 nM
[20] = target: Serine/threonine-protein kinase LATS2 (Homo sapiens) (UniProt Q9NRM7); conditions: Compound concentration 1000.0 nM
[21] = target: Serine/threonine-protein kinase MAK (Homo sapiens) (UniProt P20794); conditions: Compound concentration 1000.0 nM
[22] = target: Mitogen-activated protein kinase kinase kinase kinase 5 (Homo sapiens) (UniProt Q9Y4K4); conditions: Compound concentration 1000.0 nM
[23] = target: Microtubule-associated serine/threonine-protein kinase 1 (Homo sapiens) (UniProt Q9Y2H9); conditions: Compound concentration 1000.0 nM
[24] = target: Dual specificity mitogen-activated protein kinase kinase 2 (Homo sapiens) (UniProt P36507); conditions: Compound concentration 1000.0 nM
[25] = target: MAP kinase-interacting serine/threonine-protein kinase 1 (Homo sapiens) (UniProt Q9BUB5); conditions: Compound concentration 1000.0 nM
[26] = target: Mitogen-activated protein kinase kinase kinase 9 (Homo sapiens) (UniProt P80192); conditions: Compound concentration 1000.0 nM
[27] = target: Serine/threonine-protein kinase MRCK beta (Homo sapiens) (UniProt Q9Y5S2); conditions: Compound concentration 1000.0 nM
[28] = target: Serine/threonine-protein kinase PAK 5 (Homo sapiens) (UniProt Q9P286); conditions: Compound concentration 1000.0 nM
[29] = target: Phosphatidylinositol 4,5-bisphosphate 3-kinase catalytic subunit alpha isoform (Homo sapiens) (UniProt P42336); conditions: Compound concentration 1000.0 nM
[30] = system: Phosphatidylinositol 4,5-bisphosphate 3-kinase catalytic subunit alpha isoform (Homo sapiens), P42336 [H1047Y]; conditions: Compound concentration 1000.0 nM
[31] = target: 1-phosphatidylinositol 3-phosphate 5-kinase (Homo sapiens) (UniProt Q9Y2I7); conditions: Compound concentration 1000.0 nM
[32] = target: Serine/threonine-protein kinase N2 (Homo sapiens) (UniProt Q16513); conditions: Compound concentration 1000.0 nM
[33] = target: Serine/threonine-protein kinase PknB (Mycobacterium tuberculosis) (UniProt P9WI81); conditions: Compound concentration 1000.0 nM
[34] = target: Serine/threonine-protein kinase PLK1 (Homo sapiens) (UniProt P53350); conditions: Compound concentration 1000.0 nM
[35] = target: Protein kinase C delta type (Homo sapiens) (UniProt Q05655); conditions: Compound concentration 1000.0 nM
[36] = target: RAF proto-oncogene serine/threonine-protein kinase (Homo sapiens) (UniProt P04049); conditions: Compound concentration 1000.0 nM
[37] = system: Proto-oncogene tyrosine-protein kinase receptor Ret (Homo sapiens), P07949 [V804L]; conditions: Compound concentration 1000.0 nM
[38] = target: Serine/threonine-protein kinase RIO2 (Homo sapiens) (UniProt Q9BVS4); conditions: Compound concentration 1000.0 nM
[39] = target: Rho-associated protein kinase 2 (Homo sapiens) (UniProt O75116); conditions: Compound concentration 1000.0 nM
[40] = target: SNF-related serine/threonine-protein kinase (Homo sapiens) (UniProt Q9NRH2); conditions: Compound concentration 1000.0 nM
[41] = target: Testis-specific serine/threonine-protein kinase 1 (Homo sapiens) (UniProt Q9BXA7); conditions: Compound concentration 1000.0 nM
[42] = target: D(1A) dopamine receptor (Homo sapiens) (UniProt P21728); conditions: Compound concentration 10.0 uM
[43] = target: D(3) dopamine receptor (Homo sapiens) (UniProt P35462); conditions: Compound concentration 10.0 uM
[44] = target: Alpha-2C adrenergic receptor (Homo sapiens) (UniProt P18825); conditions: Compound concentration 10.0 uM

Sequence of Epidermal growth factor receptor (Homo sapiens), P00533 [UNDEFINED MUTATION] (P00533 whole entry, looked up, change not shown): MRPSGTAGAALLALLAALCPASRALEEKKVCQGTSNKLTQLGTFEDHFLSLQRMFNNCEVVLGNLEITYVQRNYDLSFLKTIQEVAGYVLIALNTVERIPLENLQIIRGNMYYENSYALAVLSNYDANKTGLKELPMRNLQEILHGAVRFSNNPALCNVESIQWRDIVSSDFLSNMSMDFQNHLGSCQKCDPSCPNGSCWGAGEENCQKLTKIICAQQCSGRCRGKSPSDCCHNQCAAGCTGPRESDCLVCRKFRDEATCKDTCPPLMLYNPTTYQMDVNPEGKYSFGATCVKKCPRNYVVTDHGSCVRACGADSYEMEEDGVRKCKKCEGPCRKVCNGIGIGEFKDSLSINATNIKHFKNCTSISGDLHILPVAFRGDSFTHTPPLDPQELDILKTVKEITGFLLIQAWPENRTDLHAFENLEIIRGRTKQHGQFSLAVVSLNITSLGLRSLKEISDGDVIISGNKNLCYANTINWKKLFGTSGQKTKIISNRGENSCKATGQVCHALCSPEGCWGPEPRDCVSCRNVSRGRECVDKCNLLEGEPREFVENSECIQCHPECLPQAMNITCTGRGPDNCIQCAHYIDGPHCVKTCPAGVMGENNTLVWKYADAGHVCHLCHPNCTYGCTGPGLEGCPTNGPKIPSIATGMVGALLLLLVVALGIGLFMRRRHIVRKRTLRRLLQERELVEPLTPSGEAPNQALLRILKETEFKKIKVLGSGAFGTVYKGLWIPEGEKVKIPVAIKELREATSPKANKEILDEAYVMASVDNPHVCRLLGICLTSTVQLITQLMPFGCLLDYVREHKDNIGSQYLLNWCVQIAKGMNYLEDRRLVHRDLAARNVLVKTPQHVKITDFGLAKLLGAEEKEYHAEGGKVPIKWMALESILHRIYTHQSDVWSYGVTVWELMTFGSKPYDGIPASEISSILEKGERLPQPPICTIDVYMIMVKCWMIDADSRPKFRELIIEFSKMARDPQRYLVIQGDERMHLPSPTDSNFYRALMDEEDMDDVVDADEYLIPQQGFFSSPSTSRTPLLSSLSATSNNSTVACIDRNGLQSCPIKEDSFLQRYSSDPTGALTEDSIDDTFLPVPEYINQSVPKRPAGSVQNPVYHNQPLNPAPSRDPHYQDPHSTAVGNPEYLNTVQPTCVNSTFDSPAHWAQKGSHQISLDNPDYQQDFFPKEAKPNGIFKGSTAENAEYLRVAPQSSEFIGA
Sequence of Serine/threonine-protein kinase PLK1 (Homo sapiens) (P53350 whole entry): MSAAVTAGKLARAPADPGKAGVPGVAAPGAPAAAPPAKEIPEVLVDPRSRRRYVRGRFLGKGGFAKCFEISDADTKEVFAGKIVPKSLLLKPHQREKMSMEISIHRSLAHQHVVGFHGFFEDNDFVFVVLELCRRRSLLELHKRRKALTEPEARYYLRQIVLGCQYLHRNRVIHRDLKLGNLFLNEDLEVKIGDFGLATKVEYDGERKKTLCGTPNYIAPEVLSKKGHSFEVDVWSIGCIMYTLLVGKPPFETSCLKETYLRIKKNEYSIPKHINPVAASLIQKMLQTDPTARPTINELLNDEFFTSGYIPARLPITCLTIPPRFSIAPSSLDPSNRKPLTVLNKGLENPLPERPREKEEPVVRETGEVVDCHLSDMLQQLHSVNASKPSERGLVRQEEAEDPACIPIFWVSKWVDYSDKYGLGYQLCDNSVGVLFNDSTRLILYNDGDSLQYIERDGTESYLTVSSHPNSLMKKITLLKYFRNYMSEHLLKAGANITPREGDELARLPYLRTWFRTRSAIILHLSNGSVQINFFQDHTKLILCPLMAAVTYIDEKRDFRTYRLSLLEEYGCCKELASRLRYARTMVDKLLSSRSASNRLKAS
Sequence of Serine/threonine-protein kinase N2 (Homo sapiens) (Q16513 whole entry, looked up): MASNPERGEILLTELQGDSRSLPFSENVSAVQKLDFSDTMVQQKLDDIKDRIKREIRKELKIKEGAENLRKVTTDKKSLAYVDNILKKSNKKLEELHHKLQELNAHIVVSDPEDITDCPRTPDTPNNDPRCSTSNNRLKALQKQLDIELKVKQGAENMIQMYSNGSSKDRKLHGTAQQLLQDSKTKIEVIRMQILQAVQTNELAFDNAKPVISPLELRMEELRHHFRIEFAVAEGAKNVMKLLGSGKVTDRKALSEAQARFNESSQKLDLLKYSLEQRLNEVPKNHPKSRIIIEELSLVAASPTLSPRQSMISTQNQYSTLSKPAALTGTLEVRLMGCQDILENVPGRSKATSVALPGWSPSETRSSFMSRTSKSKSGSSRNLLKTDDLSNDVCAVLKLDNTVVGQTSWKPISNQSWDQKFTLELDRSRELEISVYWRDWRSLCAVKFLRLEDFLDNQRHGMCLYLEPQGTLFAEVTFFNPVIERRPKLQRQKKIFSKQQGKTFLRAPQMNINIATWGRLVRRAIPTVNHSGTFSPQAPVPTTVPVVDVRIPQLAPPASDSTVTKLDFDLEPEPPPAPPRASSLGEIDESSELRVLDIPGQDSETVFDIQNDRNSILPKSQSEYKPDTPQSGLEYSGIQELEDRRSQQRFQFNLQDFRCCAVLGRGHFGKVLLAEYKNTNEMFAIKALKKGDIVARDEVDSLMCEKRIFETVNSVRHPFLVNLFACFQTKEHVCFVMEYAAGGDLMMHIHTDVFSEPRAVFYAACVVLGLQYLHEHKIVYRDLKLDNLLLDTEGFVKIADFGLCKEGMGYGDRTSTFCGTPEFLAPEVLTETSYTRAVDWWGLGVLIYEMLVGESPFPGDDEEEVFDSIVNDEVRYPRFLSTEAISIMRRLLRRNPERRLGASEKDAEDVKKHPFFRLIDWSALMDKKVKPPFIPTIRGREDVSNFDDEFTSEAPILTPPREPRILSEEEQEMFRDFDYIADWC
Sequence of Mitogen-activated protein kinase kinase kinase kinase 5 (Homo sapiens) (Q9Y4K4 whole entry, looked up): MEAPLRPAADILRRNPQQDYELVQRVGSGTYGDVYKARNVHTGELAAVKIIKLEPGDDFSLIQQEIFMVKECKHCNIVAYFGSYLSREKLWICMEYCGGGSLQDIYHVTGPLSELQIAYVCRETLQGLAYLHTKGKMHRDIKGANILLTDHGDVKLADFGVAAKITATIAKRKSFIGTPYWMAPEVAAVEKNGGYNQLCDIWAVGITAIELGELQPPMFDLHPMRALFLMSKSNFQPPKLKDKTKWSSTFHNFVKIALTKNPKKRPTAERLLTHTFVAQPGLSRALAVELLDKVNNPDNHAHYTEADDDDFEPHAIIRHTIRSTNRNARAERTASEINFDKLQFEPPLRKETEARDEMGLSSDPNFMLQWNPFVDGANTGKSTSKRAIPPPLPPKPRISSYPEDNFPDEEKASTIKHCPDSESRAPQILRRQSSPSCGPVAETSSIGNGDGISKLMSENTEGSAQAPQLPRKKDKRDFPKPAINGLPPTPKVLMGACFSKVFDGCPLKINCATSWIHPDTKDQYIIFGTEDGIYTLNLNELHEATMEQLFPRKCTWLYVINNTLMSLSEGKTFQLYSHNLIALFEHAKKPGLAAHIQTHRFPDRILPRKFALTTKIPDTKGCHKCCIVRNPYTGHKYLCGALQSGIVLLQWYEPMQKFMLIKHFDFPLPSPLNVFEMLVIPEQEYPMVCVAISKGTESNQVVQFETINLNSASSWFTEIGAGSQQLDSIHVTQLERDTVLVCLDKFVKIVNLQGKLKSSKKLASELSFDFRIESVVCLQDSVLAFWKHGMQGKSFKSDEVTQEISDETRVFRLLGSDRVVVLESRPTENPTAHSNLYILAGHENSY
Sequence of Rho-associated protein kinase 2 (Homo sapiens) (O75116 whole entry, looked up): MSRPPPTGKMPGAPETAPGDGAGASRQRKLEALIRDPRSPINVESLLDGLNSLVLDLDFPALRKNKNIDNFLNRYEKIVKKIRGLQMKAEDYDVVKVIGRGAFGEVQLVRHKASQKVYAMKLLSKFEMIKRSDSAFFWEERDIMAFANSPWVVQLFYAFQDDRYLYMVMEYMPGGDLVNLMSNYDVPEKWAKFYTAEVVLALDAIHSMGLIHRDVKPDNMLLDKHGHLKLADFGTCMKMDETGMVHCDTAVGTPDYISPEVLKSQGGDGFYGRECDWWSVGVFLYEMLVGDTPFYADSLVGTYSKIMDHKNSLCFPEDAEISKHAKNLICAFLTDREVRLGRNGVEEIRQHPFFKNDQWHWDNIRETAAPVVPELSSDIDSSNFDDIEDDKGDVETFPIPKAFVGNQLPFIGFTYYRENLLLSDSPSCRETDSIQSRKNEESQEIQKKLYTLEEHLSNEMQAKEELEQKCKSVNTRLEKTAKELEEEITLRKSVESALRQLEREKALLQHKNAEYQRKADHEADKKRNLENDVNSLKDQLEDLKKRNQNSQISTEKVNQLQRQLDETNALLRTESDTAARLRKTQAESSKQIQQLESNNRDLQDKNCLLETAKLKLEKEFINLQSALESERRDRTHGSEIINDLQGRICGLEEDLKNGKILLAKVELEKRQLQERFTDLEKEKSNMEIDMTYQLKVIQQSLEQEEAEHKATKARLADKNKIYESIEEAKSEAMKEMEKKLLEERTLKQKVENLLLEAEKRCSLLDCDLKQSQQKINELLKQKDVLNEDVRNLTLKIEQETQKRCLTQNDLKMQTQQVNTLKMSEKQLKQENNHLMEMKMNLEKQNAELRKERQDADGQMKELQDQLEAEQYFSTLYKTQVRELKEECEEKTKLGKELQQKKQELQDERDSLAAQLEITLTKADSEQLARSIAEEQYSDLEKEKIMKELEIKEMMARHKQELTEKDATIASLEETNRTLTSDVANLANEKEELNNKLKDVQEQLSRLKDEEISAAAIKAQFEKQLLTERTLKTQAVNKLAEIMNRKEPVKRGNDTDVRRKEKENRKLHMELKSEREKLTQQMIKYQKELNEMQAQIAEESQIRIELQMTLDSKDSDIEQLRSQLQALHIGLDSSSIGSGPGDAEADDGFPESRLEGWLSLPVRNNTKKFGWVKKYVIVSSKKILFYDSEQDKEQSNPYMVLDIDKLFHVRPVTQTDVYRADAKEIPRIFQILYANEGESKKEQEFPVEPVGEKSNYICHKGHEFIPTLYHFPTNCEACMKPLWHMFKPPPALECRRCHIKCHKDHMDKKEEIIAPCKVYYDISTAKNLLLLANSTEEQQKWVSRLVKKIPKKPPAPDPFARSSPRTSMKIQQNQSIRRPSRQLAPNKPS

O=c1nc(-c2ccccn2)sc2ccccc12 [BTZO-1]
inactive: residual activity [1] 100% | residual activity [2] 100% | residual activity [3] 75% | residual activity [4] 100% | residual activity [5] 100% | residual activity [6] 90% | residual activity [7] 96% | residual activity [8] 90% | residual activity [9] 100% | residual activity [10] 92% | residual activity [11] 100% | residual activity [12] 84% | residual activity [13] 97% | residual activity [14] 87% | residual activity [15] 91% | residual activity [16] 100% | residual activity [17] 83% | residual activity [18] 93% | residual activity [19] 100% | residual activity [20] 79% | residual activity [21] 89% | residual activity [22] 100% | residual activity [23] 73% | residual activity [24] 89% | residual activity [25] 89% | residual activity [26] 85% | residual activity [27] 100% | residual activity [28] 87% | residual activity [29] 100% | residual activity [30] 94% | residual activity [31] 100% | residual activity [32] 100% | residual activity [33] 88% | residual activity [34] 100% | residual activity [35] 100% | residual activity [36] 100% | residual activity [37] 70% | residual activity [38] 94% | residual activity [39] 94% | residual activity [40] 100% | residual activity [41] 100% | inhibition [42] 3.24% | inhibition [43] 13.6% | inhibition [44] -9.43%

O=C1NC(c2ccccn2)Sc2ccccc21 (stereo not drawn) [BTZO-4]
inactive: residual activity [1] 92% | residual activity [2] 100% | residual activity [3] 71% | residual activity [4] 80% | residual activity [5] 90% | residual activity [6] 95% | residual activity [7] 81% | residual activity [8] 81% | residual activity [9] 100% | residual activity [10] 100% | residual activity [11] 100% | residual activity [12] 92% | residual activity [13] 79% | residual activity [14] 100% | residual activity [15] 89% | residual activity [16] 96% | residual activity [17] 97% | residual activity [18] 77% | residual activity [19] 98% | residual activity [20] 70% | residual activity [21] 92% | residual activity [22] 100% | residual activity [23] 91% | residual activity [24] 75% | residual activity [25] 82% | residual activity [26] 88% | residual activity [27] 100% | residual activity [28] 94% | residual activity [29] 91% | residual activity [30] 67% | residual activity [31] 100% | residual activity [32] 100% | residual activity [33] 77% | residual activity [34] 100% | residual activity [35] 71% | residual activity [36] 100% | residual activity [37] 69% | residual activity [38] 83% | residual activity [39] 67% | residual activity [40] 94% | residual activity [41] 66% | inhibition [42] 7.77% | inhibition [43] 27.8% | inhibition [44] -4.89%
